Source: PubChem BioAssay AID2060513 (Molecular Pharmacology Branch, DTP, NCI, 2025)
“And” between values parts separate entries of the source, which are not always exact repeats. Equal entries are not always repeated. Each block holds one compound with its values, some of them ahead of it.

Test system: 299254-011-R-J1-PDC complex spheroids viability
Assay: Anticancer human tumor 299254-011-R-J1-PDC patient-derived melanoma cell line growth inhibition [GQUAD]
Settings: for viability, T/C: stronger effect = lower value
Excerpt: DNA G-quadruplex Stabilizer Agents in Combinations in Complex Spheroids
A high-throughput screen of multi-cell type tumor spheroids was designed to identify active combinations of DNA G-quadruplex stabilizer agents and targeted small molecules. Complex spheroids include a stromal component modeled by human endothelial cells (HUVEC) and fibroblasts modeled by human mesenchymal stem cells (MSCs). The concentration ranges selected for each drug and investigational agent were based upon clinically achievable concentrations if the clinical Cmax of the agent was known.
Compounds. The drugs and investigational agents: pidnarulex (CX-5461; NSC782164), APTO-253 (NSC789042), BRACO-19 (NSC847499), peposertib (NSC802822), ceralasertib (NSC780249), elimusertib (NSC800525), camonsertib (NSC841442), AZD-1390 (NSC803789), olaparib (NSC753686), talazoparib (NSC767125), ART-558 (NSC835418), sotorasib (NSC818433), MRTX-1133 (NSC836407), SN-38 (NSC673596), topotecan (NSC609699), etoposide (NSC141540), doxorubicin (NSC123127), gemcitabine (NSC613327), 5-fluorouracil (NSC19893), paclitaxel (NSC125973), vemurafenib (NSC761431), panobinostat (NSC761190), R-306465 (JNJ-16241199; NSC773264), adavosertib (NSC754352), TP-3654 (NSC805149), carboplatin (NSC241240), KSQ-4279 (NSC840948), and staurosporine (NSC755774) were obtained from the National Cancer Institute (NCI) Developmental Therapeutics Program Chemical Repository (34). The FDA-approved anticancer drug set is available from the NCI Developmental Therapeutics Program. […] The stock solutions were prepared in dimethyl sulfoxide (DMSO, Sigma-Aldrich, St. Louis, MO, cat. D2650) at 800-fold the tested concentration and stored at -70 degrees C prior to their use. All drugs and investigational agents were tested over a range starting from a high concentration at or near the clinical Cmax and decreasing in half-log increments. If the clinical Cmax for an agent had not been determined, the highest concentration tested was 10 microM.
2.3 Cell Culture. All cells were maintained in an incubator at 37 degrees C and 5% CO2 with 95% humidity. The PDC lines were cultured according to standard operating procedures established by the NCI PDMR. All PDCs were thawed and cultured in Matrigel-coated flasks prepared with a working solution of 1X Ham's F-12 nutrient mix, without supplementation (Invitrogen, cat. 11765054), 100 U/mL penicillin-streptomycin (Invitrogen, cat. 15140122), and 2.5% Matrigel (Corning Inc., cat. 354248) for the first three passages. The 857933-349-R-J2-PDC line was cultured in 6C/Colon 1B media, which includes advanced DMEM/F-12 (Thermo Fisher Scientific, cat. 12634028), 10 mM HEPES (Thermo Fisher Scientific, cat. 15630080), 1X GlutaMAX supplement (Thermo Fisher Scientific, cat. 35050061), 0.1 mg/mL primocin (InvivoGen, cat. ant-pm-2), 10% defined fetal bovine serum, heat inactivated (HyClone Laboratories Inc., cat. SH30070.03HI), 50% L-WRN conditioned media (ATCC, cat. CRL-3276), 1.25 mM N-Acetyl-L-cysteine (Sigma-Aldrich, cat. A9165), 10 mM nicotinamide (Sigma-Aldrich, cat. N0636), 1X B-27 supplement (Thermo Fisher Scientific, cat. 17504044), 1X N-2 supplement (Thermo Fisher Scientific, cat. 17502048), 10 microM Y-27632 dihydrochloride (Tocris Bioscience, cat. 1254), and 50 ng/mL human EGF recombinant protein (Thermo Fisher Scientific, cat. PHG0311). The 485176-168-R4-J1-PDC line was cultured in Panc media, which includes all 6C/Colon 1B media components plus 100 ng/mL human FGF-10 (Thermo Fisher Scientific, cat. 100-26), 500 nM SB-431542 (Selleckchem, cat. S1067), and gastrin (Tocris, cat. 3006).
[…]

[1] = curve of first compound, second compound 0.0316 µM
[2] = curve of first compound, second compound 0.1 µM
[3] = curve of first compound, second compound 0.316 µM
[4] = curve of first compound, second compound 1 µM
[5] = curve of first compound, second compound 3.16 µM
[6] = curve of first compound, second compound 10 µM
[7] = second compound 0.0316 µM, first compound 0.0316 µM
[8] = second compound 0.0316 µM, first compound 0.1 µM
[9] = second compound 0.0316 µM, first compound 0.316 µM
[10] = second compound 0.0316 µM, first compound 1 µM
[11] = second compound 0.0316 µM, first compound 3.16 µM
[12] = second compound 0.0316 µM, first compound 10 µM
[13] = second compound 0.1 µM, first compound 0.0316 µM
[14] = second compound 0.1 µM, first compound 0.1 µM
[15] = second compound 0.1 µM, first compound 0.316 µM
[16] = second compound 0.1 µM, first compound 1 µM
[17] = second compound 0.1 µM, first compound 3.16 µM
[18] = second compound 0.1 µM, first compound 10 µM
[19] = second compound 0.316 µM, first compound 0.0316 µM
[20] = second compound 0.316 µM, first compound 0.1 µM
[21] = second compound 0.316 µM, first compound 0.316 µM
[22] = second compound 0.316 µM, first compound 1 µM
[23] = second compound 0.316 µM, first compound 3.16 µM
[24] = second compound 0.316 µM, first compound 10 µM
[25] = second compound 1 µM, first compound 0.0316 µM
[26] = second compound 1 µM, first compound 0.1 µM
[27] = second compound 1 µM, first compound 0.316 µM
[28] = second compound 1 µM, first compound 1 µM
[29] = second compound 1 µM, first compound 3.16 µM
[30] = second compound 1 µM, first compound 10 µM
[31] = second compound 3.16 µM, first compound 0.0316 µM
[32] = second compound 3.16 µM, first compound 0.1 µM
[33] = second compound 3.16 µM, first compound 0.316 µM
[34] = second compound 3.16 µM, first compound 1 µM
[35] = second compound 3.16 µM, first compound 3.16 µM
[36] = second compound 3.16 µM, first compound 10 µM
[37] = second compound 10 µM, first compound 0.0316 µM
[38] = second compound 10 µM, first compound 0.1 µM
[39] = second compound 10 µM, first compound 0.316 µM
[40] = second compound 10 µM, first compound 1 µM
[41] = second compound 10 µM, first compound 3.16 µM
[42] = second compound 10 µM, first compound 10 µM
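Also: spheroids exposed to the agents for seven days before readout.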
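For viability, T/C in this document: percent viability relative to DMSO vehicle control wells = 100%.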

- IC50 [1]: > 10000 nM
- IC50 [2]: > 10000 nM
- IC50 [3]: > 10000 nM
- IC50 [4]: > 10000 nM
- IC50 [5]: > 10000 nM
- IC50 [6]: 31.6 nM
Compound: COc1cc(C2c3cc4c(cc3C(OC3OC5COC(C)OC5C(O)C3O)C3COC(=O)C23)OCO4)cc(OC)c1O (stereo unspecified) + Cc1cnc(CNC(=O)c2c(=O)c3ccc(N4CCCN(C)CC4)nc3n3c2sc2ccccc23)cn1
- viability, T/C [7]: 105%
- viability, T/C [8]: 121%
- viability, T/C [9]: 84.4%
- viability, T/C [10]: 90.1%
- viability, T/C [11]: 76.7%
- viability, T/C [12]: 86.6%
- viability, T/C [13]: 112%
- viability, T/C [14]: 95.8%
- viability, T/C [15]: 89%
- viability, T/C [16]: 87.9%
- viability, T/C [17]: 95.1%
- viability, T/C [18]: 77.7%
- viability, T/C [19]: 90%
- viability, T/C [20]: 110%
- viability, T/C [21]: 130%
- viability, T/C [22]: 105%
- viability, T/C [23]: 82.4%
- viability, T/C [24]: 63.5%
- viability, T/C [25]: 90.4%
- viability, T/C [26]: 84.8%
- viability, T/C [27]: 103%
- viability, T/C [28]: 75.9%
- viability, T/C [29]: 84.9%
- viability, T/C [30]: 61.9%
- viability, T/C [31]: 78.5%
- viability, T/C [32]: 79.5%
- viability, T/C [33]: 69.1%
- viability, T/C [34]: 73%
- viability, T/C [35]: 82.4%
- viability, T/C [36]: 59.2%
- viability, T/C [37]: 31%
- viability, T/C [38]: 16.7%
- viability, T/C [39]: 67.1%
- viability, T/C [40]: 69.8%
- viability, T/C [41]: 33.5%
- viability, T/C [42]: 0.3%

- IC50 (curve of compound): > 10000 nM
Compound: Cc1cccc(N(C)C(=O)C2C(O)CCN2c2nc(C)cc(C(F)(F)F)c2C#N)c1 (stereo unspecified)
- viability, T/C (compound 0.0316 µM): 96.8% and 97.5% and 104%
- viability, T/C (compound 0.1 µM): 96.3% and 100% and 97.4%
- viability, T/C (compound 0.316 µM): 99.6% and 98.6% and 93.5%
- viability, T/C (compound 1 µM): 96.4% and 89.9% and 93.7%
- viability, T/C (compound 3.16 µM): 103% and 83.6% and 97%
- viability, T/C (compound 10 µM): 79.5% and 81.2% and 102%

- IC50 [1]: 201 nM
- IC50 [2]: 227 nM
- IC50 [3]: 228 nM
- IC50 [4]: 210 nM
- IC50 [5]: 212 nM
- IC50 [6]: < 31.6 nM
Compound: O=C(NO)c1cnc(N2CCN(S(=O)(=O)c3ccc4ccccc4c3)CC2)nc1 + Cc1cnc(CNC(=O)c2c(=O)c3ccc(N4CCCN(C)CC4)nc3n3c2sc2ccccc23)cn1
- viability, T/C [7]: 112%
- viability, T/C [8]: 94.8%
- viability, T/C [9]: 20.9%
- viability, T/C [10]: 0.93%
- viability, T/C [11]: 0.18%
- viability, T/C [12]: 0.19%
- viability, T/C [13]: 107%
- viability, T/C [14]: 97.8%
- viability, T/C [15]: 30.7%
- viability, T/C [16]: 1.22%
- viability, T/C [17]: 0.15%
- viability, T/C [18]: 0.24%
- viability, T/C [19]: 102%
- viability, T/C [20]: 109%
- viability, T/C [21]: 27.9%
- viability, T/C [22]: 0.56%
- viability, T/C [23]: 0.14%
- viability, T/C [24]: 0.21%
- viability, T/C [25]: 93.6%
- viability, T/C [26]: 83%
- viability, T/C [27]: 31.8%
- viability, T/C [28]: 1.83%
- viability, T/C [29]: 0.13%
- viability, T/C [30]: 0.18%
- viability, T/C [31]: 74.8%
- viability, T/C [32]: 91.3%
- viability, T/C [33]: 32.3%
- viability, T/C [34]: 0.19%
- viability, T/C [35]: 0.15%
- viability, T/C [36]: 0.16%
- viability, T/C [37]: 45.8%
- viability, T/C [38]: 11.5%
- viability, T/C [39]: 0.31%
- viability, T/C [40]: 0.22%
- viability, T/C [41]: 0.22%
- viability, T/C [42]: 0.23%
